17 molecules from US11945794B2, “Nuclear transport modulators and uses thereof” (Karyopharm Therapeutics Inc., priority 2013, dated 2024) can be followed below.

What all share (assay type): cell-based
The test system of experiment [1] is Z138 cells. Put plainly: MTT cell proliferation assay. The settings on record: Homo sapiens, Z-138, approximately 64-72 hours. Here is the method:
(§1) The MTT cell proliferation assay was used to study the cytotoxic properties of the compounds. The assay was performed according to the method described by Roche Molecular Biochemicals, with minor modifications. The assay is based on the cleavage of the tetrazolium salt, MTT, in the presence of an electron-coupling reagent. The water-insoluble formazan salt produced must be solubilized in an additional step. Cells grown in a 96-well tissue culture plate were incubated with the MTT solution for approximately 4 hours. After this incubation period, a water-insoluble formazan dye formed. After solubilization, the formazan dye was quantitated using a scanning multi-well spectrophotometer (ELISA reader). […] The cells were seeded at 5,000-10,000 cells in each well of 96-well plate in 100 μL of fresh culture medium and were allowed to attach overnight. The stock solutions of the compounds were diluted in 100 μL cell culture medium to obtain eight concentrations of each test compound, ranging from 1 nM to 30 μM. […] All optical densities were measured at 490 nm using a Vmax Kinetic Microplate Reader (Molecular Devices). In most cases, the assay was performed in duplicate and the results were presented as a mean percent inhibition to the negative control±SE. The following formula was used to calculate the percent of inhibition: Inhibition (%)=(1−(ODo/OD))×100.
(§2) The compounds were tested against Z138, MM1S and 3T3 cells. The Z138 cell line is a mature B-cell acute lymphoblastic leukemia cell line derived from a patient with chronic lumphocytic leukemia. The MM1S cell line was established from the peripheral blood of a human multiple myeloma patient. 3T3 cells are standard fibroblast cells; they were originally isolated from Swiss mouse embryo tissue.

The subject of experiment [2] is MM1S cells. Put plainly: MTT cell proliferation assay. The settings on record: Homo sapiens, MM1.S, approximately 64-72 hours. Here is the method: as §1, §2
Experiment [3] relates to 3T3 cells. Put plainly: MTT cell proliferation assay. The settings on record: Mus musculus, NIH3T3, approximately 64-72 hours. The protocol:
as §1, §2

Experiment [4] deals with T1, CRM1 (Homo sapiens, UniProt O14980).
T1 construct: endogenous in cells; host or cells: U2OS cells stably expressing Rev-GFP
T1 sequence (O14980 whole entry): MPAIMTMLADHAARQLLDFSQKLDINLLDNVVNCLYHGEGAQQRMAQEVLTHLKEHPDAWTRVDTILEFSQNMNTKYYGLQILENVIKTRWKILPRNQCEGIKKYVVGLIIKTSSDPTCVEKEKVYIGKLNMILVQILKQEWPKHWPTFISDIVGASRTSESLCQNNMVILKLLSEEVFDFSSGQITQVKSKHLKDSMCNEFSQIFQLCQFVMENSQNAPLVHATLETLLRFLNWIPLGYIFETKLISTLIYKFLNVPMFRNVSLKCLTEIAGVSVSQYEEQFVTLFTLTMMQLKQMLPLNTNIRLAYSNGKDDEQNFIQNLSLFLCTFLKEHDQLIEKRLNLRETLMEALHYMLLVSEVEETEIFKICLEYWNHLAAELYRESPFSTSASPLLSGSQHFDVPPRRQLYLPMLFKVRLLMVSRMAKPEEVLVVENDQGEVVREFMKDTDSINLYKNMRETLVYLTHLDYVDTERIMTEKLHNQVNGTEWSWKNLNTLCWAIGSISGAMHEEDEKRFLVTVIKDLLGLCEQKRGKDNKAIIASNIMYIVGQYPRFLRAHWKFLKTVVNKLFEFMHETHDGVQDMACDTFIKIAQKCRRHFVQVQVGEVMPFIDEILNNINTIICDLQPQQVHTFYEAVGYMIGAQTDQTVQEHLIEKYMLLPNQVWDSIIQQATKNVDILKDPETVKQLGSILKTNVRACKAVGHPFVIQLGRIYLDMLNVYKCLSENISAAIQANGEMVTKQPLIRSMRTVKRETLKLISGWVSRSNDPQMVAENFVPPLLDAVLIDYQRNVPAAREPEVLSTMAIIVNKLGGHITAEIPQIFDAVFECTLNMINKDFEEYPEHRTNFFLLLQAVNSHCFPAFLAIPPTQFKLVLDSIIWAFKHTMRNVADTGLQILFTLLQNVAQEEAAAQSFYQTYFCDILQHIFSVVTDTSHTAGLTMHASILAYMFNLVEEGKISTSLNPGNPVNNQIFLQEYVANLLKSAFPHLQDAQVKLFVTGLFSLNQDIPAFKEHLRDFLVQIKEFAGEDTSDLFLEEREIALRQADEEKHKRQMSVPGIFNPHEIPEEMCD
Put plainly: Inhibition of nuclear export, RevGFP assay in U2OS-RevGFP cells. The settings on record: approximately 1 hour incubation. Here is the method:
The inhibition of CRM1 mediated nuclear export by compounds of the invention was determined in a RevGFP assay. Rev is a protein from human immunodeficiency virus type 1 (HIV-1) and contains a nuclear export signal (NES) in its C-terminal domain and a nuclear localization signal (NLS) in its N-terminal domain. Nuclear export of Rev protein is dependent on the classical NES/CRM1 pathway (Neville et al, 1997, Kau et al, 2003).
In this assay, U2OS-RevGFP cells were seeded onto clear-bottom, black, 384-well plates the day before the experiment. Compounds were serially diluted 1:2 starting from 40 μM in a separate 384-well plate in DMEM, and then transferred onto cells. Cells were incubated with compound for approximately 1 hour before fixation with 3.7% formaldehyde and nuclei staining with Hoechst 33258. The amount of GFP in cell nuclei was measured and compound IC50s were determined (Kau et al, 2003).

On to `NC(=O)/C(=C/n1cnc(-c2cc(C(F)(F)F)cc(C(F)(F)F)c2)n1)c1cnc(N)nc1` [Compound 136, (E)-2-(2-aminopyrimidin-5-yl)-3-(3-(3,5-bis(trifluoromethyl)phenyl)-1H-1,2,4-triazol-1-yl)acrylamide], for which the IC50 was 100 to 5000 nM in experiment [1], less than 100 nM in experiment [2], more than 30000 nM in experiment [3] and 100 to 5000 nM in experiment [4].
On to `NC(=O)/C(=C/n1cnc(-c2cc(C(F)(F)F)cc(C(F)(F)F)c2)n1)c1cccnc1` [Compound 104, (E)-3-(3-(3,5-bis(trifluoromethyl)phenyl)-1H-1,2,4-triazol-1-yl)-2-(pyridin-3-yl)acrylamide], for which the 50% inhibitory concentration (IC50) in experiment [1] was less than 100 nM; in experiment [2], less than 100 nM; in experiment [3] it was 100 to 5000 nM; in experiment [4], 100 to 5000 nM.
Take `NC(=O)/C(=C\n1cnc(-c2cc(C(F)(F)F)cc(C(F)(F)F)c2)n1)c1ccc(Cl)nc1` [Compound 156, (Z)-3-(3-(3,5-bis(trifluoromethyl)phenyl)-1H-1,2,4-triazol-1-yl)-2-(6-chloropyridin-3-yl)acrylamide]: the IC50 is 100 to 5000 nM in experiment [1], 100 to 5000 nM in experiment [2], more than 30000 nM in experiment [3] and 100 to 5000 nM in experiment [4].
Consider `NC(=O)/C(=C/n1cnc(-c2cc(C(F)(F)F)cc(C(F)(F)F)c2)n1)c1ccncc1F` [Compound 138, (E)-3-(3-(3,5-bis(trifluoromethyl)phenyl)-1H-1,2,4-triazol-1-yl)-2-(3-fluoropyridin-4-yl)acrylamide], for which the IC50 in experiment [1] was less than 100 nM; in experiment [2], less than 100 nM; in experiment [3], 100 to 5000 nM; in experiment [4] it was less than 100 nM.
As to `NC(=O)/C(=C/n1cnc(-c2cc(C(F)(F)F)cc(C(F)(F)F)c2)n1)c1ccnc(C(F)(F)F)c1` [Compound 147, (E)-3-(3-(3,5-bis(trifluoromethyl)phenyl)-1H-1,2,4-triazol-1-yl)-2-(2-(trifluoromethyl)pyridin-4-yl)acrylamide], the IC50 is 100 to 5000 nM in experiment [1], less than 100 nM in experiment [2], 100 to 5000 nM in experiment [3] and less than 100 nM in experiment [4].
Regarding `N#C/C(=C/n1cnc(-c2cc(C(F)(F)F)cc(C(F)(F)F)c2)n1)c1cccnc1` [Compound 102, (E)-3-(3-(3,5-bis(trifluoromethyl)phenyl)-1H-1,2,4-triazol-1-yl)-2-(pyridin-3-yl)acrylonitrile], the IC50 in experiment [1] lay within 100 to 5000 nM; in experiment [2], 100 to 5000 nM; in experiment [3], 5000 to 30000 nM; in experiment [4], 100 to 5000 nM.
Regarding `COc1ccc(/C(=C\n2cnc(-c3cc(C(F)(F)F)cc(C(F)(F)F)c3)n2)C(=O)OC(C)C)cn1` [Compound 120, isopropyl (E)-3-(3-(3,5-bis (trifluoromethyl)phenyl)-1H-1,2,4-triazol-1-yl)-2-(6-methoxypyridin-3-yl) acrylate], the half-maximal inhibitory concentration (IC50) in experiment [1] was 100 to 5000 nM; in experiment [2] it was 100 to 5000 nM; in experiment [3], more than 30000 nM; in experiment [4] it was 100 to 5000 nM.
On to `NC(=O)/C(=C/n1cnc(-c2cc(C(F)(F)F)cc(C(F)(F)F)c2)n1)c1cnc(F)nc1` [Compound 137, (E)-3-(3-(3,5-bis(trifluoromethyl)phenyl)-1H-1,2,4-triazol-1-yl)-2-(2-fluoropyrimidin-5-yl)acrylamide], for which the half-maximal inhibitory concentration (IC50) was 100 to 5000 nM in experiment [1], less than 100 nM in experiment [2], more than 30000 nM in experiment [3] and less than 100 nM in experiment [4].
Turning to `NC(=O)/C(=C/n1cnc(-c2cc(C(F)(F)F)cc(C(F)(F)F)c2)n1)c1ccnc(F)c1` [Compound 140, (E)-3-(3-(3,5-bis(trifluoromethyl)phenyl)-1H-1,2,4-triazol-1-yl)-2-(2-fluoropyridin-4-yl)acrylamide], the IC50 in experiment [1] was less than 100 nM; in experiment [2] it was less than 100 nM; in experiment [3] it was more than 30000 nM; in experiment [4] it was less than 100 nM.
`NC(=O)/C(=C/n1cnc(-c2cc(C(F)(F)F)cc(C(F)(F)F)c2)n1)c1cncc(Cl)c1` [Compound 141, (E)-3-(3-(3,5-bis(trifluoromethyl)phenyl)-1H-1,2,4-triazol-1-yl)-2-(5-chloropyridin-3-yl)acrylamide]: the IC50 in experiment [1] is 100 to 5000 nM; in experiment [2], less than 100 nM; in experiment [3], more than 30000 nM; in experiment [4], 100 to 5000 nM.
On to `CC(C)OC(=O)/C(=C/n1cnc(-c2cc(C(F)(F)F)cc(C(F)(F)F)c2)n1)c1cccnc1` [Compound 101, (E)-isopropyl 3-(3-(3,5-bis(trifluoromethyl)phenyl)-1H-1,2,4-triazol-1-yl)-2-(pyridin-3-yl)acrylate], for which the IC50 in experiment [1] was 100 to 5000 nM; in experiment [2], less than 100 nM; in experiment [3], 5000 to 30000 nM; in experiment [4], 5000 to 30000 nM.
On to `NC(=O)/C(=C/n1cnc(-c2cc(C(F)(F)F)cc(C(F)(F)F)c2)n1)c1ccncc1` [Compound 108, (E)-3-(3-(3,5-bis(trifluoromethyl)phenyl)-1H-1,2,4-triazol-1-yl)-2-(pyridin-4-yl)acrylamide], for which the half-maximal inhibitory concentration (IC50) is 100 to 5000 nM in experiment [1], less than 100 nM in experiment [2], more than 30000 nM in experiment [3] and less than 100 nM in experiment [4].
Consider `NC(=O)/C(=C/n1cnc(-c2cc(C(F)(F)F)cc(C(F)(F)F)c2)n1)c1ccc(Cl)nc1` [Compound 143, (E)-3-(3-(3,5-bis(trifluoromethyl)phenyl)-1H-1,2,4-triazol-1-yl)-2-(6-chloropyridin-3-yl)acrylamide], for which the IC50 in experiment [1] was 100 to 5000 nM; in experiment [2], less than 100 nM; in experiment [3], more than 30000 nM; in experiment [4], 100 to 5000 nM.
As for `Cc1noc(C)c1/C(=C\n1cnc(-c2cc(C(F)(F)F)cc(C(F)(F)F)c2)n1)C(N)=O` [Compound 118, (E)-3-(3-(3,5-bis(trifluoromethyl)phenyl)-1H-1,2,4-triazol-1-yl)-2-(3,5-dimethylisoxazol-4-yl) acrylamide], the IC50 was 100 to 5000 nM in experiment [1], 100 to 5000 nM in experiment [2], more than 30000 nM in experiment [3] and 100 to 5000 nM in experiment [4].
With `CC(C)OC(=O)/C(=C/n1cnc(-c2cc(C(F)(F)F)cc(C(F)(F)F)c2)n1)c1cncc(F)c1` [Compound 119, isopropyl (E)-3-(3-(3,5-bis(trifluoromethyl)phenyl)-1H-1,2,4-triazol-1-yl)-2-(5-fluoropyridin-3-yl)acrylate], the IC50 is 100 to 5000 nM in experiment [1], 100 to 5000 nM in experiment [2], more than 30000 nM in experiment [3] and 100 to 5000 nM in experiment [4].
As for `NC(=O)/C(=C\n1cnc(-c2cc(C(F)(F)F)cc(C(F)(F)F)c2)n1)c1ccnc(F)c1` [Compound 155, (Z)-3-(3-(3,5-bis(trifluoromethyl)phenyl)-1H-1,2,4-triazol-1-yl)-2-(2-fluoropyridin-4-yl)acrylamide], the IC50 is less than 100 nM in experiment [1], less than 100 nM in experiment [2], 100 to 5000 nM in experiment [3] and less than 100 nM in experiment [4].
As to `N#Cc1cncc(/C(=C\n2cnc(-c3cc(C(F)(F)F)cc(C(F)(F)F)c3)n2)C(N)=O)c1` [Compound 148, (E)-3-(3-(3,5-bis(trifluoromethyl)phenyl)-1H-1,2,4-triazol-1-yl)-2-(5-cyanopyridin-3-yl)acrylamide], the IC50 in experiment [1] is less than 100 nM; in experiment [2], less than 100 nM; in experiment [3], more than 30000 nM; in experiment [4], less than 100 nM.
